Experimental findings from ChEMBL document CHEMBL1147974, “Metabolic activation of indole-containing prostaglandin D2 receptor 1 antagonists: impacts of glutathione trapping and glucuronide conjugation on covalent binding” (Bioorg Med Chem Lett, 2007) are described below.

The structures appear in SMILES notation. Where only a bound is given, the exact number is not on record here.

Series [1] has as its system Liver microsomes. The series can be described thus: Covalent binding in rat liver microsomes at 10 uM after 1 hr. The format is ADME, Microsome.
In series [2] the test system is Liver microsomes. The series is described as follows: Covalent binding in human liver microsomes at 10 uM after 1 hr. In kind it is ADME, Microsome. A general note: Liver microsomes are vesicles of endoplasmic reticulum, rich in cytochrome P450 enzymes.
Series [3] relates to Liver microsomes. The series can be described thus: Covalent binding in rat liver microsomes after 60 mins assessed as GSH adduct formation. The format is ADME, Microsome. To be noted: 1 h.
Series [4] deals with Liver microsomes. The series is described as follows: Covalent binding in human liver microsomes after 60 mins assessed as GSH adduct formation. The format is ADME, Microsome. Conditions: 1 h.
Series [5] relates to Hepatocyte. The series can be described thus: Covalent binding in rat hepatocytes at 10 uM after 1 hr. The format is ADME, cell-based.
Series [6] concerns Hepatocyte. The series is described as follows: Covalent binding in human hepatocytes at 10 uM after 1 hr. In kind it is ADME, cell-based.

Regarding `CC(=O)c1cc(F)cc2c3c(n(Cc4ccc(Cl)cc4)c12)[C@@H](CC(=O)O)CC3`, the Activity with Liver microsomes [1] is 290 pmol/mg; with Liver microsomes [2], 46 pmol/mg; with Liver microsomes [3], 41%; with Liver microsomes [4], 15%; in the series with Hepatocyte [5], 45 pmol/mg; with Hepatocyte [6] it was 16 pmol/mg.
Take `CC(=O)c1cc(S(C)(=O)=O)cc2c3c(n(Cc4ccc(Cl)cc4)c12)[C@@H](CC(=O)O)CC3`: the Activity with Liver microsomes [1] is listed as 23 pmol/mg; in the series on Liver microsomes [2] it was 18 pmol/mg; with Liver microsomes [3], less than 0.5%; in the series on Liver microsomes [4] it was less than 0.5%; in the series with Hepatocyte [5], 8 pmol/mg; in the series with Hepatocyte [6], 5 pmol/mg.
`O=C(O)C[C@H]1CCc2c1n(Cc1ccc(Cl)cc1)c1c(Br)cc(F)cc21`: the Activity came out at 460 pmol/mg with Liver microsomes [1]; 33 pmol/mg in the series with Liver microsomes [2]; 22% in the series with Liver microsomes [3]; 5% in the series on Liver microsomes [4]; 74 pmol/mg in the series with Hepatocyte [5]; 33 pmol/mg in the series on Hepatocyte [6].
